Test results as given in ChEMBL document CHEMBL1121724 (J Med Chem, 1981).

Columns and labels:
[1] = test system: Thromboxane-A synthase (Oryctolagus cuniculus); settings: at 100 µM
[2] = biological target: Thromboxane-A synthase (Oryctolagus cuniculus); test: Inhibitory activity against Thromboxane synthetase
[3] = biological target: T1, Thromboxane-A synthase (Homo sapiens) (UniProt P24557); test: Inhibition of Thromboxane synthetase at 100 µM
T1 sequence (whole entry): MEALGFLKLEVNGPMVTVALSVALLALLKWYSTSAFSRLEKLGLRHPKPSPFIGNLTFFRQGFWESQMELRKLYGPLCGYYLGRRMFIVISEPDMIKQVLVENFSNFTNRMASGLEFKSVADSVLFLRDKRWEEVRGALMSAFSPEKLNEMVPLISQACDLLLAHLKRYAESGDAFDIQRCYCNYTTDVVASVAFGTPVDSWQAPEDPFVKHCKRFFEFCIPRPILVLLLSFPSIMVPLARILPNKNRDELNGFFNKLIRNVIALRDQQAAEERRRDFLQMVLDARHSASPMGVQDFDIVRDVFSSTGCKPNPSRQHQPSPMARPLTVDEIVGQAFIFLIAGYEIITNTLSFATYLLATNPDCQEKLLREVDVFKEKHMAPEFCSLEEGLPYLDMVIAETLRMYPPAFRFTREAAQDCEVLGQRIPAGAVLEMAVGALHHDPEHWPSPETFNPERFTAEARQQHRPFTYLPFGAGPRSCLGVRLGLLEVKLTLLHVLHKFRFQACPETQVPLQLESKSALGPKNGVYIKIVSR

Row | SMILES | IC50 [2] [nM] | further results
1 | c1cn[nH]c1 |  | inhibition [1]: 8.9%
2 | O=C(O)CCCCCn1ccnc1 | > 1000 | 
3 | C/C(=C\c1ccc(Cc2cccnc2)s1)C(=O)O | 12 | 
4 | O=C(O)CCCCn1ccnc1 | > 1000 | 
5 | C/C(=C\C(=O)O)c1ccc(Cc2cccnc2)c(C)c1 | 18 | 
6 | O=C(O)/C=C/c1ccc(Cc2cccnc2)cc1 | 10 | 
7 | O=C(O)CCCCCCc1cccnc1 | 68 | 
8 | C/C(=C/c1ccc(Cc2cccnc2)cc1)C(=O)O | 3 | 
9 | O=C(O)CCc1ccc(Cc2cccnc2)cc1 | 210 | 
10 | O=C(O)CCCCCCCc1ccncc1 | > 1000 | 
11 | O=C(O)CCCCCc1ccncc1 | > 1000 | 
12 | O=C(O)CCCCCCCc1cccnc1 | 76 | 
13 | O=C(O)CCCCCc1cccnc1 | 86 | 
14 | O=C(O)CCCCCCc1ccncc1 | > 1000 | 
15 | CC/C(=C\c1ccc(Cc2cccnc2)cc1)C(=O)O | 7 | 
16 | O=C(O)CCCCc1ccncc1 | > 1000 | 
17 | CC(Cc1ccc(Cc2cccnc2)cc1)C(=O)O (stereo not drawn) | 20 | 
18 | c1ccnnc1 |  | inhibition [1]: 16.8%
19 | c1cscn1 |  | inhibition [1]: 17.3%
20 | C/C(=C\C(=O)O)c1ccc(Cc2cccnc2)cc1 | 56 | 
21 | O=C(O)CCCCc1cccnc1 | 500 | 
22 | C/C(=C\c1ccc(Cc2ccncc2)cc1)C(=O)O | > 1000 | 
23 | C/C(=C\c1ccc(C(C)c2cccnc2)cc1)C(=O)O (stereo not drawn) | 25 | 
24 | O=C(O)/C(Br)=C/c1ccc(Cc2cccnc2)cc1 | 5 | 
25 | c1ncncn1 |  | inhibition [1]: 11%
26 | O=C(O)/C=C/c1ccc(Cc2cccnc2)s1 | 47 | 
27 | c1cncnc1 |  | inhibition [3]: 12%
28 | C/C(=C\c1ccc(Cn2ccnc2)cc1)C(=O)O | 4 | 
